According to ChEMBL document CHEMBL3616461, “Design, synthesis and biological evaluation of novel pyrazolo-pyrimidinones as DPP-IV inhibitors in diabetes” (Bioorg Med Chem Lett, 2015):

How the values were obtained:
Dipeptidyl peptidase 4 = Dipeptidyl peptidase 4 (Homo sapiens, UniProt P27487); test: Inhibition of human recombinant DPP-4 using Gly-pro-p-nitroanilide as substrate assessed as formation of p-nitroaniline after 30 mins by colorimetric assay
[1] = Cytotoxicity against rat macrophages by MTS/PMS assay; type: cell-based; conditions: macrophage
Rattus norvegicus [2] = test: Antidiabetic activity in high-fat-diet and low dose streptozotocin-induced diabetic Wistar rat assessed as blood glucose level at 50 mg/kg, po after 15 days (reference value: 515 mg/dl); type: functional
Rattus norvegicus [3] = test: Antidiabetic activity in high-fat-diet and low dose streptozotocin-induced diabetic Wistar rat assessed as blood glucose level at 10 mg/kg, po after 15 days (reference value: 515 mg/dl); type: functional

Dipeptidyl peptidase 4, sequence (P27487 whole entry): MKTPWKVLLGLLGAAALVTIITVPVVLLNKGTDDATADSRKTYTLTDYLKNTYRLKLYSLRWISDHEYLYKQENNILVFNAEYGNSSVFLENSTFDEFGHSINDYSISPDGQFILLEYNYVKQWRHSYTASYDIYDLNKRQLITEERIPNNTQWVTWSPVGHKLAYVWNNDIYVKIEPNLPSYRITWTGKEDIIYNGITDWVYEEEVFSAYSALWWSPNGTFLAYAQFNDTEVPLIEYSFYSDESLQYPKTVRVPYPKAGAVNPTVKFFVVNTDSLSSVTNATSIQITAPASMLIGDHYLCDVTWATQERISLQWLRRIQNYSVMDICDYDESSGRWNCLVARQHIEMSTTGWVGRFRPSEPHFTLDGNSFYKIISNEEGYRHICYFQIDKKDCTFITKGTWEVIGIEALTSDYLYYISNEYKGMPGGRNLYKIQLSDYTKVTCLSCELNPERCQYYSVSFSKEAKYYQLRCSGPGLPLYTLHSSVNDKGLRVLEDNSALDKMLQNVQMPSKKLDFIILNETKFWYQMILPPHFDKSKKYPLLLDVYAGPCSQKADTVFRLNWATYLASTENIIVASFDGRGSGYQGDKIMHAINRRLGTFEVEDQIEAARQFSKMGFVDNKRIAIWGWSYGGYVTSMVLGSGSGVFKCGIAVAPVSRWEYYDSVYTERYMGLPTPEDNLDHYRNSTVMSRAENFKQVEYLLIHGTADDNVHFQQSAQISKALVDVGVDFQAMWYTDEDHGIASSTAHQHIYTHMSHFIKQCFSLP

Row | Structure (SMILES) | IC50 (Dipeptidyl peptidase 4) | Activity [1] | Activity (Rattus norvegicus [2]) | Activity (Rattus norvegicus [3])
1 | COc1ccc(-n2ncc3c(=O)n(-c4ccc(F)cc4)c(C)nc32)cc1 | Not Active | Non-toxic | – | –
2 | Cc1ccnc(-n2c(C)nc3c(cnn3-c3ccccc3)c2=O)c1 | – | Non-toxic | 198.5 mg/dL | –
3 | CCOC(=O)c1sc(-n2c(C)nc3c(cnn3-c3ccccc3)c2=O)c(C(=O)OCC)c1C | Not Active | Non-toxic | – | –
4 | O=C(Nc1ccc(Cl)cc1)c1cnn(-c2ccccc2)c1NC(=O)C(F)(F)F | Not Active | Non-toxic | – | –
5 | Cc1nc2c(cnn2-c2ccccc2)c(=O)n1-c1ccccc1 | Not Active | Non-toxic | – | –
6 | COc1ccc(-n2ncc3c(=O)n(-c4cc(C)ccn4)c(C)nc32)cc1 | – | Non-toxic | – | –
7 | Cc1nc2c(cnn2-c2ccccc2)c(=O)n1-c1ccccn1 | – | Non-toxic | – | –
8 | COc1ccc(-n2ncc3c(=O)n(-c4ccc(Br)cn4)c(C)nc32)cc1 | Not Active | Non-toxic | – | –
9 | Cc1nc2c(cnn2-c2ccccc2)c(=O)n1Cc1ccccc1 | Not Active | Non-toxic | – | –
10 | Cc1nc2c(cnn2-c2ccccc2)c(=O)n1-c1ccc(F)cc1 | Not Active | Non-toxic | – | –
11 | N[C@@H](CC(=O)N1CCn2c(nnc2C(F)(F)F)C1)Cc1cc(F)c(F)cc1F [SITAGLIPTIN] | – | Non-toxic | – | 136.4 mg/dL
12 | Cc1nc2c(cnn2-c2ccccc2)c(=O)n1-c1ccc(F)cc1F | Not Active | Non-toxic | – | –
13 | Cc1nc2c(cnn2-c2ccccc2)c(=O)n1-c1ccc([N+](=O)[O-])cn1 | Not Active | Non-toxic | – | –
14 | COc1ccc(-n2ncc3c(=O)n(-c4nc(-c5ccc(Cl)cc5)cs4)c(C)nc32)cc1 | – | Non-toxic | – | –
15 | Cc1nc2c(cnn2-c2ccccc2)c(=O)n1-c1ccc(Br)cn1 | – | Non-toxic | – | –
16 | COc1ccc(-n2ncc3c(=O)n(-c4ccccn4)c(C)nc32)cc1 | Not Active | Non-toxic | – | –
17 | O=C(Nc1ccc(F)cc1)c1cnn(-c2ccccc2)c1NC(=O)C(F)(F)F | – | Non-toxic | 193.2 mg/dL | –
18 | CCOC(=O)c1sc(-n2c(C)nc3c(cnn3-c3ccc(OC)cc3)c2=O)c(C(=O)OCC)c1C | Not Active | Non-toxic | – | –
19 | CC(=O)Nc1c(C(=O)Nc2ccccn2)cnn1-c1ccccc1 | Not Active | Non-toxic | – | –
20 | CCc1ccc(-n2c(C)nc3c(cnn3-c3ccccc3)c2=O)cc1 | Not Active | Non-toxic | – | –
21 | Cc1nc2c(cnn2-c2ccccc2)c(=O)n1-c1cccc(Cl)c1 | Not Active | Non-toxic | – | –
22 | CC(=O)Nc1c(C(=O)Nc2ccc(Br)cn2)cnn1-c1ccccc1 | Not Active | Non-toxic | – | –
23 | COc1ccc(-n2ncc3c(=O)n(-c4ccc([N+](=O)[O-])cn4)c(C)nc32)cc1 | Not Active | Non-toxic | – | –
24 | Cc1nc2c(cnn2-c2ccccc2)c(=O)n1-c1ncccn1 | – | Non-toxic | – | –
25 | Cc1cc(C)c(-n2c(C)nc3c(cnn3-c3ccccc3)c2=O)c(C)c1 | – | Non-toxic | 162.6 mg/dL | –
26 | CC(=O)Nc1c(C(=O)Nc2nc(-c3ccc(Cl)cc3)cs2)cnn1-c1ccccc1 | Not Active | Non-toxic | – | –
